BindingDB's records for doi:10.1016/s0960-894x(03)00742-x (Keio University, 2003)

Target: alpha-L-fucosidase (Bos taurus)
Assay: Inhibitory activity against alpha-Fucosidase in bovine kidney

Row | SMILES | IC50 [µM]
1 | CCCCCCCCCCCCN[C@H]1CC(C)[C@@H](O)C(O)[C@@H]1O (stereo partly drawn) [(1R,3R,4S)-4-Dodecylamino-6-methyl-cyclohexane-1,2,3-triol] | 1.2
2 | C[C@@H]1CC(NCCc2ccccc2)[C@@H](O)[C@@H](O)[C@@H]1O (some centres not stated) | 7.5
